Reference: PubChem BioAssay (NCI)
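Values below derive from 48-hour exposures of cells grown in 96-well plates, with endpoints linearly interpolated between the two concentrations bracketing the appropriate inhibition level. TGI: total growth inhibition.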

Tests used:
Assay in all cases: inhibition of tumour cell growth, NCI panel, 48 h
786-0 renal = test system: 786-0 renal
A498 renal = test system: A498 renal
A549 NSCLC = test system: A549 NSCLC
ACHN renal = test system: ACHN renal
BT-549 breast = test system: BT-549 breast
CAKI-1 renal = test system: CAKI-1 renal
CCRF-CEM leukemia = test system: CCRF-CEM leukemia
DU-145 prostate = test system: DU-145 prostate
EKVX NSCLC = test system: EKVX NSCLC
HCC-2998 colon = test system: HCC-2998 colon
HCT-116 colon = test system: HCT-116 colon
HCT-15 colon = test system: HCT-15 colon
HL-60(TB) leukemia = test system: HL-60(TB) leukemia
HOP-62 NSCLC = test system: HOP-62 NSCLC
HOP-92 NSCLC = test system: HOP-92 NSCLC
HS 578T breast = test system: HS 578T breast
HT29 colon = test system: HT29 colon
IGROV1 ovarian = test system: IGROV1 ovarian
K-562 leukemia = test system: K-562 leukemia
KM12 colon = test system: KM12 colon
M14 melanoma = test system: M14 melanoma
MALME-3M melanoma = test system: MALME-3M melanoma
MCF7 breast = test system: MCF7 breast
MDA-MB-231 breast = test system: MDA-MB-231 breast
MDA-MB-435 = test system: MDA-MB-435
MDA-N = test system: MDA-N
MOLT-4 leukemia = test system: MOLT-4 leukemia
NCI-H226 lung = test system: NCI-H226 lung
NCI-H23 lung = test system: NCI-H23 lung
NCI-H460 lung = test system: NCI-H460 lung
NCI-H522 lung = test system: NCI-H522 lung
OVCAR-3 ovarian = test system: OVCAR-3 ovarian
OVCAR-4 ovarian = test system: OVCAR-4 ovarian
OVCAR-5 ovarian = test system: OVCAR-5 ovarian
OVCAR-8 ovarian = test system: OVCAR-8 ovarian
PC-3 prostate = test system: PC-3 prostate
RPMI-8226 leukemia = test system: RPMI-8226 leukemia
RXF 393 renal = test system: RXF 393 renal
SF-268 CNS = test system: SF-268 CNS
SF-295 CNS = test system: SF-295 CNS
SF-539 CNS = test system: SF-539 CNS
SK-MEL-2 melanoma = test system: SK-MEL-2 melanoma
SK-MEL-28 melanoma = test system: SK-MEL-28 melanoma
SK-MEL-5 melanoma = test system: SK-MEL-5 melanoma
SN12C renal = test system: SN12C renal
SNB-19 CNS = test system: SNB-19 CNS
SNB-75 CNS = test system: SNB-75 CNS
SR leukemia = test system: SR leukemia
SW-620 colon = test system: SW-620 colon
T-47D breast = test system: T-47D breast
TK-10 renal = test system: TK-10 renal
U251 CNS = test system: U251 CNS
UACC-257 melanoma = test system: UACC-257 melanoma
UACC-62 melanoma = test system: UACC-62 melanoma
UO-31 renal = test system: UO-31 renal
COLO 205 colon = test system: COLO 205 colon
LOX IMVI melanoma = test system: LOX IMVI melanoma
NCI/ADR-RES ovarian = test system: NCI/ADR-RES ovarian
SK-OV-3 ovarian = test system: SK-OV-3 ovarian

In the case of `COc1ccccc1/C=C/c1c(N)ncnc1Nc1cccc(Cl)c1`, the TGI (786-0 renal) is reported as 26.6 µM, the TGI (A498 renal) is reported as 30.9 µM and the TGI (A549 NSCLC) is reported as 41.6 µM. For the same compound, the TGI (ACHN renal) was 26 µM, the TGI (BT-549 breast) was 35.7 µM and the TGI (CAKI-1 renal) was 58.9 µM. For the same compound, the TGI (CCRF-CEM leukemia) was 1.12 µM, the TGI (DU-145 prostate) was > 100 µM and the TGI (EKVX NSCLC) was > 100 µM. The TGI (HCC-2998 colon) was > 100 µM, the TGI (HCT-116 colon) was 86.8 µM and the TGI (HCT-15 colon) was 52.5 µM. The TGI (HL-60(TB) leukemia) was 0.969 µM, the TGI (HOP-62 NSCLC) was 40 µM and the TGI (HOP-92 NSCLC) was 0.588 µM. The TGI (HS 578T breast) was 44 µM, the TGI (HT29 colon) was 87.2 µM and the TGI (IGROV1 ovarian) was 27.7 µM. The TGI (K-562 leukemia) was > 100 µM, the TGI (KM12 colon) was > 100 µM and the TGI (M14 melanoma) was 51.8 µM. For the same compound, the TGI (MALME-3M melanoma) was 59.7 µM, the TGI (MCF7 breast) was > 100 µM and the TGI (MDA-MB-231 breast) was 42.5 µM. For the same compound, the TGI (MDA-MB-435) was 33.1 µM, the TGI (MDA-N) was 55.8 µM and the TGI (MOLT-4 leukemia) was > 100 µM. For the same compound, the TGI (NCI-H226 lung) was 49 µM, the TGI (NCI-H23 lung) was 47 µM and the TGI (NCI-H460 lung) was 57.1 µM. It also gave a TGI (NCI-H522 lung) of 30.5 µM, a TGI (OVCAR-3 ovarian) of 59.5 µM and a TGI (OVCAR-4 ovarian) of 34.4 µM. The TGI (OVCAR-5 ovarian) was > 100 µM, the TGI (OVCAR-8 ovarian) was > 100 µM and the TGI (PC-3 prostate) was 0.97 µM. It also gave a TGI (RPMI-8226 leukemia) of 31.2 µM, a TGI (RXF 393 renal) of 38.4 µM and a TGI (SF-268 CNS) of 38.8 µM. It also gave a TGI (SF-295 CNS) of 65 µM, a TGI (SF-539 CNS) of 35.6 µM and a TGI (SK-MEL-2 melanoma) of 36.5 µM. For the same compound, the TGI (SK-MEL-28 melanoma) was 36.4 µM, the TGI (SK-MEL-5 melanoma) was 43.4 µM and the TGI (SN12C renal) was 30.9 µM. For the same compound, the TGI (SNB-19 CNS) was 47.1 µM, the TGI (SNB-75 CNS) was 23.6 µM and the TGI (SR leukemia) was > 100 µM. For the same compound, the TGI (SW-620 colon) was > 100 µM, the TGI (T-47D breast) was > 100 µM and the TGI (TK-10 renal) was 44.1 µM. It also gave a TGI (U251 CNS) of 34.4 µM, a TGI (UACC-257 melanoma) of 35 µM and a TGI (UACC-62 melanoma) of 33.3 µM. The TGI (UO-31 renal) was 57.1 µM.
`CC1OC(OC2C(CO)OC(O[C@H]3CC[C@@]4(C)C(=CC[C@H]5[C@@H]6C[C@@H]7O[C@](O)(CC[C@H](C)COC8OC(CO)C(O)C(O)C8O)[C@@H](C)[C@@H]7[C@@]6(C)CC[C@@H]54)C3)C(OC3OC(C)C(O)C(O)C3O)C2O)C(O)C(O)C1O` (some centres not stated) was tested, and the TGI (786-0 renal) was 5.72 µM, the TGI (A498 renal) was > 100 µM and the TGI (A549 NSCLC) was 5.55 µM. It also gave a TGI (ACHN renal) of 40.3 µM, a TGI (BT-549 breast) of 18 µM and a TGI (CAKI-1 renal) of 3.61 µM. For the same compound, the TGI (CCRF-CEM leukemia) was 4.47 µM, the TGI (COLO 205 colon) was > 35.5 µM and the TGI (DU-145 prostate) was 5.92 µM. The TGI (EKVX NSCLC) was > 100 µM, the TGI (HCC-2998 colon) was > 37.9 µM and the TGI (HCT-116 colon) was > 32.1 µM. The TGI (HCT-15 colon) was 10 µM, the TGI (HL-60(TB) leukemia) was > 100 µM and the TGI (HOP-62 NSCLC) was 6.04 µM. For the same compound, the TGI (HOP-92 NSCLC) was 12.7 µM, the TGI (HS 578T breast) was 6.71 µM and the TGI (HT29 colon) was > 100 µM. The TGI (IGROV1 ovarian) was 23.1 µM, the TGI (K-562 leukemia) was > 33.4 µM and the TGI (KM12 colon) was 5.69 µM. For the same compound, the TGI (LOX IMVI melanoma) was 4.9 µM, the TGI (MALME-3M melanoma) was 18.9 µM and the TGI (MCF7 breast) was > 65.5 µM. It also gave a TGI (MDA-MB-231 breast) of 30.8 µM, a TGI (MDA-MB-435) of 7.03 µM and a TGI (MDA-N) of 11.3 µM. The TGI (NCI-H226 lung) was 85 µM, the TGI (NCI-H23 lung) was 17.4 µM and the TGI (NCI-H460 lung) was > 45.7 µM. For the same compound, the TGI (NCI-H522 lung) was 7.53 µM, the TGI (NCI/ADR-RES ovarian) was 18.4 µM and the TGI (OVCAR-3 ovarian) was > 29.3 µM. The TGI (OVCAR-4 ovarian) was 28.8 µM, the TGI (OVCAR-5 ovarian) was > 49.1 µM and the TGI (OVCAR-8 ovarian) was 28.9 µM. The TGI (PC-3 prostate) was 15.9 µM, the TGI (RPMI-8226 leukemia) was 17.4 µM and the TGI (RXF 393 renal) was 98.7 µM. The TGI (SF-268 CNS) was 11.5 µM, the TGI (SF-295 CNS) was 23.1 µM and the TGI (SF-539 CNS) was > 21.6 µM. For the same compound, the TGI (SK-MEL-2 melanoma) was 20 µM, the TGI (SK-MEL-28 melanoma) was 12 µM and the TGI (SK-MEL-5 melanoma) was > 32.8 µM. The TGI (SK-OV-3 ovarian) was 6.12 µM, the TGI (SN12C renal) was > 26 µM and the TGI (SNB-19 CNS) was 8.65 µM. For the same compound, the TGI (SNB-75 CNS) was 4.78 µM, the TGI (SR leukemia) was > 100 µM and the TGI (SW-620 colon) was 4.02 µM. The TGI (T-47D breast) was 17 µM, the TGI (TK-10 renal) was > 100 µM and the TGI (U251 CNS) was > 33 µM. The TGI (UACC-257 melanoma) was > 49.9 µM, the TGI (UACC-62 melanoma) was > 50.4 µM and the TGI (UO-31 renal) was 13.3 µM.
